Laboratory results as given in patent US10753901B2, “Integrated sensor for the rapid identification of bacteria using ISFETS” (priority 2012, dated 2020).

Assays:
[1] = system: E. coli K12 BW25113; experiment: ISFET chip detection of potassium ion efflux after addition of antibacterial agent, positive control; format: cell-based; conditions: in SM buffer, compared to negative control BL21, FIG. 12
Experimental: In this example, the bacteriocin Colicin A9 was combined with E. coli K12 BW25113 as the positive control. As negative controls, Colicin A9 was combined with Staphylococcus aureus 8325, and Colicin A9 was combined with Pseudomonas aeruginosa (PA01). Experiments were performed as described above for Example 1, using the ISFET system 600.
In this example, the Polymyxin B antibiotic (PMB) was combined with E. coli K12 BW25113 in SM buffer as the positive control. As the negative control, Polymyxin B antibiotic (PMB) combined with E. coli K12 BL21 (DE3-Δtail) (referred to as BL21) in SM buffer. Experiments were performed as described above for Example 1, using the ISFET system 600.

[2] = system: Staphylococcus aureus 8325; experiment: ISFET chip detection of potassium ion efflux after addition of lysostaphin, positive control; format: cell-based; conditions: compared to negative controls E. coli K12 BW25113 and P. aeruginosa (PA01), FIG. 11
Excerpt: In this example, the lysostaphin from Staphylococcus simulans was combined with Staphylococcus aureus 8325 as the positive control. As negative controls, lysostaphin from Staphylococcus simulans was combined with E. coli K12 BW25113, and lysostaphin from Staphylococcus simulans was combined with Pseudomonas aeruginosa (PA01).

## Polymyxin B
[1]
  ISFET output from efflux of potassium ions: output increases

## lysostaphin: lysostaphin from Staphylococcus simulans
[2]
  ISFET output from efflux of potassium ions: output increases
